T1: GmSAMT1 (Glycine max, UniProt B5A7G5)
T1 sequence (B5A7G5 1-370): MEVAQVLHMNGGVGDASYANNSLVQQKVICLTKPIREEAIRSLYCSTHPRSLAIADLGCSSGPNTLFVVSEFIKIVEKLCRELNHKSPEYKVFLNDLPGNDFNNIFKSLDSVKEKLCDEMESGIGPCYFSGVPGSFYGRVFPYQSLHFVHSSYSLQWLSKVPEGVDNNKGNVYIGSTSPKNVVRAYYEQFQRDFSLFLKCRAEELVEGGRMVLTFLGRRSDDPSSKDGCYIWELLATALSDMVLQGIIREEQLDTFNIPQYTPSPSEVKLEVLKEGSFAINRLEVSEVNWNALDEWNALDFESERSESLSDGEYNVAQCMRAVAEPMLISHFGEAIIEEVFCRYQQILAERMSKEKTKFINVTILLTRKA

B1: GmSABP2-1: soybean methyl salicylate esterase gene (SEQ ID NO: 2), over-expressed in transgenic hairy roots (nucleic acid)
DNA: ATGGGTTCACAAAATTGTATGGATAGGAAGCACTATGTTCTGGTGCATGGGGCATGCCATGGAGCTTGGTGTTGGTATAAGCTCAAGCCACGCTTGGAATCTGCAGGCCATAAGGTCACAGTACTTGACCTTGCAGCTTCTGGAACCAACATGAAGAAAATTGAAGATGTTGATACTTTCTCAGAGTATTCTGCGCCTTTGTTGCAGCTAATGGCCACAATTCCCTCAAATGAGAAGTTAGTTCTAGTTGGTCACAGCCTTGGAGGGCTGAACATAGCACTTGCAATGGAGAAATTCCCAGAAAAGGTAGCAGTTGGTGTTTTCTTAACAGCTTTTGCTCCAGACACTGAACACCACCCATCTTATGTCTTGGAAAAGTACAATGAGAGGACCCCGTTAGCTGCATGGTTAGACACTGAATTTGCTCCAAGCGGAAACAAAACATCAATGTTCTTCGGCCCCAACTTCTTGTCCGACAAGCTCTACCAACTGTCCCCTATTGAGGACTTGGAATTGGCCAAGACTTTAGCAAGGCCATCATCGCTCTTCATGGAAGACTTGACTAAACAAAAGAACTTCTCCAAAGAGGGATATGGGTCAGTTCCACGTGCCTTTATTGTTTGCACGGAGGACCTTGGAATTCCATTGGAATATCAGCTCTTGATGATCCAAAATGTTGGGTTCAATGACGTTGTAGAGGTCAAAGACGCAGATCATATGGTTATGCTTTGCAAGCCACAAGAACTATTCGATTCCCTCCAGCAGATAGCGACTAAATATGCATGA
modifications: Glycine Max

Experiments:
GmSAMT1 [1] = molecular target: T1, GmSAMT1; assay: Effects of metal ions on activity of GmSAMT1; assay type: biochemical, soybean; conditions: chloride salts at 5 mM final concentration; control without metal ion set at 1.0
Experimental: (§1) A 50 μl volume containing 50 mM Tris-HCl, pH 7.5, 1 mM SA, and 3 μM ^14C-SAM with a specific activity of 51.4 mCi/mmol (Perkin-Elmer, Boston, Mass.) was used. The assay was initiated by addition of SAM, maintained at 25° C. for 30 min, and stopped by the addition of ethyl acetate (150 μl). After phase separation by 1 min centrifugation at 14,000 g, the upper organic phase was counted using a liquid scintillation counter (Beckman Coulter, Fullerton, Calif.). The radiation counts in the organic phase indicated the amount of synthesized MeSA. Substrate specificity assay was also performed for recombinant GmSAMT1, with a range of substrates including SA, benzoic acid, anthranilic acid, 3-hydroxybenzoic acid, 4-hydroxybenzoic acid, nicotinic acid, p-coumaric acid, caffeic acid, cinnamic acid, vanallic acid, jasmonic acid (JA), gibberellic acid, indole-3-acetic acid, and 2,4-dichlorophenoxyacetic acid. The activity with SA was set at 100%. Three independent assays were performed for each compound.
Appropriate enzyme concentrations and incubation time were determined in time course assays to make sure that the reaction velocity was linear during the assay period. Lineweaver-Burk plots yielded apparent Km values. To determine the Km for SA, concentrations of SA were independently varied from 2 to 150 μM, while SAM was held constant at 200 μM. Assays were conducted at 25° C. for 30 min, as described in SAMT activity assay. The optimal pH for GmSAMT1 was assayed from pH 6.0 to pH 9.0, and optimal reaction of temperature was assayed ranging from 0° C. to 60° C. Effects of metal ions on activity of GmSAMT1 were assayed with a range of metal ions, including K^+, Cu^2+, Zn^2+, Fe^2+, Fe^3+, Mn^2+, Ca^2+, Na^+, NH4^+, and Mg^2+, in the form of chloride salts at 5 mM final concentrations.

GmSAMT1 [2] = molecular target: T1, GmSAMT1; assay: Radiochemical SAMT activity assay, substrate specificity of recombinant GmSAMT1; assay type: biochemical, soybean; conditions: all substrates at 1 mM, activity with salicylic acid set at 100%, average of three measurements
Experimental: as §1

SCN race 2 = assay: Nematode infection and demographics assay in transgenic soybean hairy roots; assay type: in vivo, Heterodera glycines; conditions: TN02-275 background; susceptibility of vector control in susceptible background set at 100%
Description: The soybean hairy root transformation system by infection with A. rhizogenes harboring the target genes were modified and used to study soybean resistance against SCN. A. rhizogenes K599 harboring the target gene, vector control and A. rhizogenes K599 alone were used to inoculate the TN02-275 soybeans, which are susceptible to SCN race 2. To better evaluate the resistance of the target gene, A. rhizogenes harboring the vector control and A. rhizogenes K599 alone were also used to inoculate the TN02-226 soybeans, which are resistant to SCN race 2. Generation of soybean hairy roots was modified as follows: First, soybean seeds were sterilized with chlorine gas. Second, a single layer of mature soybean seeds with intact seed coats were placed in open Petri dish, which was put in a bell jar desiccator within a fume hood. A beaker with 100 ml bleach was also placed in the desiccator and added 5 ml concentrated (12N) HCl along the side of the beaker. Then the seeds were kept in the closed desiccator immediately and maintained in the chlorine gas atmosphere overnight (about 16 h). After sterilization, seeds were transferred to the autoclaved filter paper moistened with sterilized distilled water in the Petri dishes for germination in a laminar flow hood. The germinated soybean seeds were sowed in sterilized vermiculite and six seeds were grown in each cell of 18-cell germination tray. The overnight cultured bacteria lawn of A. rhizogenes K599 with binary vector pJL-OFP, pJL-OFP-35S::GUS or pJL-OFP-35S::GmSAMT1 from LB medium plate containing […] kanamycin, or a culture of A. rhizogenes K599 lacking the binary vector grown in LB medium without any antibiotics was collected and suspended in 1 ml of sterile distilled water, respectively. Soybean cotyledonary nodes and upper hypocotyls of 5-day-old seedlings with unfolded cotyledons were stabbed three times by the syringe containing the bacterial suspension. In the first week, the trays were covered with the sterile transparent lids to retain high humidity. In the subsequent three weeks, plants were transferred into pots and the A. rhizogenes wounding sites were covered by wet sterile vermiculite to continually keep high humidity. Each day soybean plants were watered using sterile B&D solution containing 1 mM CaCl2, 0.5 mM KH2PO4, 10 μM Fe-citrate, 0.25 mM MgSO4, 0.25 mM K2SO4, 1 μM MnSO4, 2 μM H3BO4, 0.5 μM ZnSO4, 2 μM CuSO4, 0.1 μM CoSO4, 0.1 μM Na2MoO4, and 1 mM KNO3. The growth conditions for soybean plants were 12 h light/12 h dark at 28° C./25° C. with irradiance from fluorescent bulbs at 150-200 μmol m^−2·s^−1. After about four weeks, the hairy roots grew to approximately 10 cm in length. Soybean transgenic roots were detected based on OFP expression, using a fluorescence stereomicroscope (Olympus SZX12 fluorescence microscope and OFP filter). The tap root and non-transgenic roots were excised under the wounding site. Transgenic roots harboring pJL-OFP-35S::GUS screened by OFP signal were immersed in GUS solution (1 mM X-Gluc), 0.5 mM potassium ferrocyanide, 0.1% (v/v) TRITON™ X-100, 100 mM sodium phosphate buffer pH 7.0), and incubated at 37° C. overnight. In the following day, the X-Gluc solution was discarded. The roots were washed repeatedly with 70% ethanol to remove chlorophyll. Transgenic roots with visual GUS stain were recorded.
To easily compare the SCN infection, one transgenic root was left for the SCN inoculation. […]

| Molecule | effect of metal ion on GmSAMT1 activity compared with control (GmSAMT1 [1]) | Relative activity of GmSAMT1 with substrate (GmSAMT1 [2]) [%] | other results |
| --- | --- | --- | --- |
| Cl.N [NH4^+] | minimal effect |  |  |
| O=C(O)c1cccc(O)c1 [3-Hydroxybenzoic acid, 3-hydroxybenzoic acid] |  | 1.8 |  |
| [Cl][Cu][Cl] [Cu^2+] | no activity |  |  |
| [Ca+2].[Cl-].[Cl-] [Ca^2+] | moderately inhibited |  |  |
| O=C(O)Cc1c[nH]c2ccccc12 [Indole-3-acetic acid, indole-3-acetic acid] |  | 0 | Relative activity of GmSAMT1 with substrate (GmSAMT1 [2]; listed as indole-3-acetic acid): no activity was detected |
| [Cl-].[Cl-].[Mg+2] [Mg^2+] | minimal effect |  |  |
| Nc1ccccc1C(=O)O [Anthranilic acid, anthranilic acid] |  | 9.3 |  |
| [Cl-].[Na+] [Na^+] | minimal effect |  |  |
| C=C1C[C@]23C[C@@]1(O)CC[C@H]2[C@@]12C=C[C@H](O)[C@@](C)(C(=O)O1)[C@H]2[C@@H]3C(=O)O [Gibberellic acid, gibberellic acid] |  | 0 | Relative activity of GmSAMT1 with substrate (GmSAMT1 [2]; listed as gibberellic acid): no activity was detected |
| O=C(O)/C=C/c1ccc(O)c(O)c1 [Caffeic acid, caffeic acid] |  | 0 |  |
| [Cl][Fe][Cl] [Fe^2+] | no activity |  |  |
| O=C(O)COc1ccc(Cl)cc1Cl [2,4-Dichlorophenoxyacetic acid, 2,4-dichlorophenoxyacetic acid] |  | 0 |  |
| O=C(O)c1ccccc1 [Benzoic acid, benzoic acid] |  | 16.9 |  |
| CC/C=C\C[C@H]1C(=O)CC[C@@H]1CC(=O)O [Jasmonic acid, jasmonic acid] |  | 0 | Relative activity of GmSAMT1 with substrate (GmSAMT1 [2]; listed as JA): no activity was detected |
| O=C(O)/C=C/c1ccc(O)cc1 [p-Coumaric acid, p-coumaric acid] |  | 0 |  |
| O=C(O)c1ccccc1O [Salicylic acid, salicylic acid] |  | 100 |  |
| [Cl-].[K+] [K] | double activity |  |  |
| [Cl][Mn][Cl] [Mn^2+] | moderately inhibited |  |  |
| COc1cc(C(=O)O)ccc1O [Vanallic acid, vanallic acid] |  | 0 |  |
| O=C(O)C=Cc1ccccc1 [Cinnamic acid, cinnamic acid] |  | 0 |  |
| [Cl-].[Cl-].[Zn+2] [Zn^2+] | no activity |  |  |
| O=C(O)c1ccc(O)cc1 [4-Hydroxybenzoic acid, 4-hydroxybenzoic acid] |  | 0 |  |
| O=C(O)c1cccnc1 [Nicotinic acid, nicotinic acid] |  | 0 |  |
| B1 |  |  | reduction of susceptibility (SCN race 2): 84.5% |

From patent US20140366219A1, “Increasing Soybean Defense Against Pests” (priority 2011, published 2014)
